The test system of test [1] is KG-1 cells. The test is described as follows: Nuclear morphology analysis (Hoechst/PI). The test is classed as cell-based, human. Conditions: 72 h; considerable increase between 0.5 and 1 μM. As for the experimental part: (§1) Proliferation and viability of U-937, KG-1, RAJI, PC-3, MDA-MB-231, RPMI1788, PBMCs, and PHA_PBMCs were assessed by trypan blue exclusion assays at the indicated time points. Nuclear morphology changes associated with apoptosis and necrosis were evaluated by fluorescence microscopy after Hoechst and propidium iodide (PI) staining as previously described.
(§2) Fig. 6 Nuclear morphology analysis in U-937, RAJI, KG-1, and RPMI1788 cells. Cells were treated with increasing doses of MC3353. Upper panels—after 72 h of treatment, the nuclear morphology was analyzed by fluorescence microscopy after Hoechst and PI staining. Pictures are representative of three independent experiments. Lower panels—the results of cell counting are represented as the mean (± SD) of three independent experiments

For test [2], the system named is RAJI cells. The test is described as follows: Nuclear morphology analysis (Hoechst/PI). Conditions: 72 h; drastic increase in cell death rate between 0.5 and 1 μM. The test is classed as cell-based, human. As for the experimental part:
as §1, §2

For test [3], the system named is U-937 cells. Description: Nuclear morphology analysis (Hoechst/PI). Conditions: 72 h; considerable increase between 0.5 and 1 μM. The test is classed as cell-based, human. Here is the method: as §1, §2
The target in test [4] is T1, Src kinase (h) (Homo sapiens, UniProt P12931).
T1 construct: purchased Eurofins Cerep
The test is described as follows: Kinase panel (Cerep). It counts as biochemical. Conditions: read-out: % inhibition at 10 µM by MC3353, Src kinase (h), ATP 5 μM. As for the experimental part: (§3) The test compound, reference compound or water (control) were mixed with the enzyme (for the exact amount see table below) in the appropriate buffer. Thereafter, the reaction was initiated by adding the required amount of the appropriate substrate and of ATP, and the mixture is incubated at room temperature (variable reaction time, see table below). For control basal measurements, the enzyme was omitted from the reaction mixture. Following incubation, the reaction was stopped by adding 13 mM EDTA. After 5 min, the proper antibody labelled with europium chelate was added. After 60 more min, the fluorescence transfer was measured at λex=337 nm, λem=620 nm and λem=665 nm using a microplate reader (Envision, Perkin Elmer). The enzyme activity was determined by dividing the signal measured at 665 nm by that measured at 620 nm (ratio). The results are expressed as a percent inhibition of the control enzyme activity.

Test [5] addresses T2, CDC2/CDK1 (h) (cycB) (Homo sapiens, UniProt P06493).
T2 construct: purchased Eurofins Cerep
The test is described as follows: Kinase panel (Cerep). The test is classed as biochemical. Conditions: read-out: % inhibition at 10 µM by MC3353, CDC2/CDK1 (h) (cycB), ATP 10 μM. As for the experimental part: as §3

The target of test [6] is T3, Pim2 kinase (h) (Homo sapiens, UniProt Q9P1W9).
T3 construct: purchased Eurofins Cerep
The test is described as follows: Kinase panel (Cerep). It counts as biochemical. The note with it: read-out: % inhibition at 10 µM by MC3353, Pim2 kinase (h), ATP 3 μM. Here is the method: as §3

Test [7] deals with T4, KDR kinase (h) (VEGFR2) (Homo sapiens, UniProt P35968).
T4 construct: purchased Eurofins Cerep
Description: Kinase panel (Cerep). The note with it: read-out: % inhibition at 10 µM by MC3353, KDR kinase (h) (VEGFR2), ATP 25 μM. The test is classed as biochemical. Here is the method:
as §3

In test [8] the target is T5, TRKA (h) (Homo sapiens, UniProt P04629).
T5 construct: purchased Eurofins Cerep
Description: Kinase panel (Cerep). It counts as biochemical. The note with it: read-out: % inhibition at 10 µM by MC3353, TRKA (h), ATP 100 μM. As for the experimental part:
as §3

In test [9] the target is T6, PAK2 (h) (Homo sapiens, UniProt Q13177).
T6 construct: purchased Eurofins Cerep
Description: Kinase panel (Cerep). It counts as biochemical. Conditions: read-out: % inhibition at 10 µM by MC3353, PAK2 (h), ATP 50 μM. As for the experimental part:
as §3

The target of test [10] is T7, MARK1 (h) (Homo sapiens, UniProt Q9P0L2).
T7 construct: purchased Eurofins Cerep
Description: Kinase panel (Cerep). It counts as biochemical. Conditions: read-out: % inhibition at 10 µM by MC3353, MARK1 (h), ATP 1 μM. As for the experimental part:
as §3

For test [11], the target named is T8, CHK2 (h) (Homo sapiens, UniProt O96017).
T8 construct: purchased Eurofins Cerep
Description: Kinase panel (Cerep). Conditions: read-out: % inhibition at 10 µM by MC3353, CHK2 (h), ATP 30 μM. The test is classed as biochemical. Here is the method:
as §3

For test [12], the target named is T9, PDK1 (h) (Homo sapiens, UniProt O15530).
T9 construct: purchased Eurofins Cerep
The test is described as follows: Kinase panel (Cerep). The test is classed as biochemical. Conditions: read-out: % inhibition at 10 µM by MC3353, PDK1 (h), ATP 10 μM. As for the experimental part:
as §3

Test [13] concerns the target T10, FGFR3 kinase (h) (Homo sapiens, UniProt P22607).
T10 construct: purchased Eurofins Cerep
Description: Kinase panel (Cerep). Conditions: read-out: % inhibition at 10 µM by MC3353, FGFR3 kinase (h), ATP 10 μM. The test is classed as biochemical. As for the experimental part: as §3

Test [14] has as its target T11, human C-terminal DNMT3A (Homo sapiens, UniProt Q9Y6K1).
T11 construct: the C-terminal catalytic domain of human DNMT3A (hDNMT3A)
The test is described as follows: DNMT3A restriction-based fluorescence assay. The test is classed as biochemical. As for the experimental part:
DNMT3A enzyme inhibition was adapted from the restriction-based fluorescence assay protocol described in Ceccaldi et al.. Briefly, it is performed in a 384-well microplate in a total volume of 50 μL. An oligonucleotide labeled at the 5′ end with biotin is hybridized to his complementary strand labeled at the 3′ end with 6-carboxyfluorescein. The DNA duplex thus formed contains only one single CpG site overlapping with a restriction site of a methylation sensitive restriction enzyme. The duplex is transferred in the wells coated with avidin. Thus, the duplex is fixed to the plate. The methylation reaction is performed by adding human C-terminal DNMT3A at the final concentration of 4 ng/μL in a total volume of 50 μL in the presence of the chemical compound to be tested at the desired concentration and the cofactor SAM at the final concentration of 20 μM. After incubation (1 h at 37 °C), the plate is washed and the methylation sensitive restriction enzyme HpyCH4IV is added. After 1-h incubation at 37 °C, the plate is washed and the fluorescence measured with a PerkinElmer Envision Multilabel Plate Reader (PerkinElmer, Villebon-sur-Yvette, France). The data are expressed as a percentage of inhibition vs. log concentration (M). Data are normalized referring to the “restriction control” (wells coated with labeled duplex not treated nor exposed to DNMT3A, but only cleaved by HpyCH4IV) as the maximum of inhibition (100%) and to the “DMSO control” (wells coated with labeled duplex but treated just with 0.1% DMSO exposed to DNMT3A and then to HpyCH4IV) as the minimum of inhibition (0%; total methylation).

A value given as a limit tells only on which side of the number the result lay.

T11 sequence (Q9Y6K1 634-912 limits assumed): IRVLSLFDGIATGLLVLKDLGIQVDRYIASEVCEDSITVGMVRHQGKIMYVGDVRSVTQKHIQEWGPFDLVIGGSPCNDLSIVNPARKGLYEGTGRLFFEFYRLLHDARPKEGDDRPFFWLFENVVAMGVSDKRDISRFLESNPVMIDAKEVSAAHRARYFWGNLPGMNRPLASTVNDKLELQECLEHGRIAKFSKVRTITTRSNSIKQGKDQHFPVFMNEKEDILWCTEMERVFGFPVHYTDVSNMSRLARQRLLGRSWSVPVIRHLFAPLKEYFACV
T6 sequence (Q13177 whole entry): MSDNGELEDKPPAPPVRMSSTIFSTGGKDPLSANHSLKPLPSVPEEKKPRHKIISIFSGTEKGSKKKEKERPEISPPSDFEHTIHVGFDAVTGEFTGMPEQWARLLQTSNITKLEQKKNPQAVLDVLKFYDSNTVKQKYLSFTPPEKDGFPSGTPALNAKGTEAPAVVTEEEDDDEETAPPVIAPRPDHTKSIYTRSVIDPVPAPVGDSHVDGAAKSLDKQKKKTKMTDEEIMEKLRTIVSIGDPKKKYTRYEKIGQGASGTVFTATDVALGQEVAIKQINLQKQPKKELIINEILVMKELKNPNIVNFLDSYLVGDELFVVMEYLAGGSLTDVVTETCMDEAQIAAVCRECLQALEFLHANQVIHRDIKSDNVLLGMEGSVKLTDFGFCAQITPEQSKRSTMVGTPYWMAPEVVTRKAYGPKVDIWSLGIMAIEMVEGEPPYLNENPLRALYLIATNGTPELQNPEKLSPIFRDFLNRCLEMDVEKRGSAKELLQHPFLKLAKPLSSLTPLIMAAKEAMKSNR
T3 sequence (Q9P1W9 whole entry): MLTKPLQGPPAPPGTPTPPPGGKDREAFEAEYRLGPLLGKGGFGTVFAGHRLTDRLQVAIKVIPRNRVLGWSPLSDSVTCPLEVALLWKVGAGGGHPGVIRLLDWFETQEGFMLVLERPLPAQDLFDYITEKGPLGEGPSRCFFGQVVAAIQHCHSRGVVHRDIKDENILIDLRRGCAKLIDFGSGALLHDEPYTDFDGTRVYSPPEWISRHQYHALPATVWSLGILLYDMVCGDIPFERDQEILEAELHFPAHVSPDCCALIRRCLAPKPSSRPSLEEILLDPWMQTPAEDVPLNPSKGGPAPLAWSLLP
T9 sequence (O15530 whole entry): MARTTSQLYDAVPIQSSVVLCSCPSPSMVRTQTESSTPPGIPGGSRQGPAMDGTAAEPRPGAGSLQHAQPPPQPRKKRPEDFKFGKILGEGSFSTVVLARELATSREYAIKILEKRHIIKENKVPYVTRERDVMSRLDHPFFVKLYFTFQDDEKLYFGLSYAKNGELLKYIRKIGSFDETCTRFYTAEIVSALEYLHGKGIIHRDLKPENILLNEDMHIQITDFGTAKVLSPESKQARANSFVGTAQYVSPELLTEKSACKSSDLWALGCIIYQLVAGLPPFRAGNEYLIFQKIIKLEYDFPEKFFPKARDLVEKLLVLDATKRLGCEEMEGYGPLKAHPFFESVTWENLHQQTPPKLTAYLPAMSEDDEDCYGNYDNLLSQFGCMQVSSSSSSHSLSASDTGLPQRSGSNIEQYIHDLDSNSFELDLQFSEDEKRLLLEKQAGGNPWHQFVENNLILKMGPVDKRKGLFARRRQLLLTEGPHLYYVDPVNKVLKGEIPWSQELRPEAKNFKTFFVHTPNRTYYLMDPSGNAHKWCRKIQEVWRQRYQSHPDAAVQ
T2 sequence (P06493 whole entry): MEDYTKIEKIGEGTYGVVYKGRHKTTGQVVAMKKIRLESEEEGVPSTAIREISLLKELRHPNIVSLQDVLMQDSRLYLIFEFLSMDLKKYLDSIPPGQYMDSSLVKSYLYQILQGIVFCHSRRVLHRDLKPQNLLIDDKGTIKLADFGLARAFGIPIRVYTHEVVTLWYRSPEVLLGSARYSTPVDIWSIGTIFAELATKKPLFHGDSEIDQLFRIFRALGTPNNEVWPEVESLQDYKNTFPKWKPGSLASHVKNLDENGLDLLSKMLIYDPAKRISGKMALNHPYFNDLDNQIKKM
T2 sequence (P14635 whole entry partner): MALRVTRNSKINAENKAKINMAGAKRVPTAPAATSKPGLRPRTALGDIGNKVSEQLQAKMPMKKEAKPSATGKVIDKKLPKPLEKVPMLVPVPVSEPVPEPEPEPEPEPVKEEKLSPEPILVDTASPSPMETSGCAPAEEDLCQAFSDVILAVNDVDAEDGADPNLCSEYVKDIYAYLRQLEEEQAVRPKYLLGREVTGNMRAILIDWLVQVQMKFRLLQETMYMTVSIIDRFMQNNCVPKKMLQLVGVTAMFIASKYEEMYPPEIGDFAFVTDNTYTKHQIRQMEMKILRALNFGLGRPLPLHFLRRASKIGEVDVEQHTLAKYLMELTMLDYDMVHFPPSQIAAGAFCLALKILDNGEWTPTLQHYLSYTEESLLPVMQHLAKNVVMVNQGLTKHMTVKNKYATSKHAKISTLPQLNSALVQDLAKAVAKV
T5 sequence (P04629 33-796): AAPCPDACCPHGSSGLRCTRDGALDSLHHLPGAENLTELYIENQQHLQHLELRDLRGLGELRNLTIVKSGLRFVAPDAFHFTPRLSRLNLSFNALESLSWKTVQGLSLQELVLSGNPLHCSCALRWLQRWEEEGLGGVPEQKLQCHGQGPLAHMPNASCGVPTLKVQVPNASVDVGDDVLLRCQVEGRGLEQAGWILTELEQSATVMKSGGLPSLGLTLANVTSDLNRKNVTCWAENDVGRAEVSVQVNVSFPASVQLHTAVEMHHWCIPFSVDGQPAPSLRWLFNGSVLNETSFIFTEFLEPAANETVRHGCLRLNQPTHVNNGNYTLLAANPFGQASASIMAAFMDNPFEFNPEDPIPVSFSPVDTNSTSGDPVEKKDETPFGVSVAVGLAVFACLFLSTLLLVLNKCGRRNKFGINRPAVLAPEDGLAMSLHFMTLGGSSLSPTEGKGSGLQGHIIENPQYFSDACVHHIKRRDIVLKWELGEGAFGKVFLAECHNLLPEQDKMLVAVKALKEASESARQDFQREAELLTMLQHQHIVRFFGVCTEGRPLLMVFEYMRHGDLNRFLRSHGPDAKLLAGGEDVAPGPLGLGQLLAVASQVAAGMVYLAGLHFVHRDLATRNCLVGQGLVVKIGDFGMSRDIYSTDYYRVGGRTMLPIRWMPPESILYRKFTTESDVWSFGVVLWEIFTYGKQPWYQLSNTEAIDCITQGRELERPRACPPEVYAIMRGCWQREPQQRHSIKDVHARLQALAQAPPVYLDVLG
T7 sequence (Q9P0L2 whole entry): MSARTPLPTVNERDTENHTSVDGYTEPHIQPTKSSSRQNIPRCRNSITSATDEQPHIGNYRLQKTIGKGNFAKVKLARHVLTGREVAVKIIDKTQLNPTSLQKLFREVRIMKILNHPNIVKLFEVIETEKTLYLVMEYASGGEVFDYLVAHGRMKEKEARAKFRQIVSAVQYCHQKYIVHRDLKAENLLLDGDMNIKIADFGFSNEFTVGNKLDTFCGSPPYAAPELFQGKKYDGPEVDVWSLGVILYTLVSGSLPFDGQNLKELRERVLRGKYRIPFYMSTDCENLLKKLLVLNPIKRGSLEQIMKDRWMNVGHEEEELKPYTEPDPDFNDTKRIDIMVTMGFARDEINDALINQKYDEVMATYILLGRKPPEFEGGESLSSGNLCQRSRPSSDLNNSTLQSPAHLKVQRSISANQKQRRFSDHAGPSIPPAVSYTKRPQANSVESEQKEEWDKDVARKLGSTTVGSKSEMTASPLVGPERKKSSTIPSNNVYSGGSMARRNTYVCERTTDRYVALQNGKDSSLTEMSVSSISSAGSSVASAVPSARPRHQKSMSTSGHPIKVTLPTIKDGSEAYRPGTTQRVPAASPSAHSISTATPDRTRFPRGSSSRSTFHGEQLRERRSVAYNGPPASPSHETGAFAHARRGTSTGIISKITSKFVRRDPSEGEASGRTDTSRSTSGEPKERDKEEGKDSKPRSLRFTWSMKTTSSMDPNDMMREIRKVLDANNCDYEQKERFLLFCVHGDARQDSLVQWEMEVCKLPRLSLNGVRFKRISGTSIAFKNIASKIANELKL
T10 sequence (P22607 23-806): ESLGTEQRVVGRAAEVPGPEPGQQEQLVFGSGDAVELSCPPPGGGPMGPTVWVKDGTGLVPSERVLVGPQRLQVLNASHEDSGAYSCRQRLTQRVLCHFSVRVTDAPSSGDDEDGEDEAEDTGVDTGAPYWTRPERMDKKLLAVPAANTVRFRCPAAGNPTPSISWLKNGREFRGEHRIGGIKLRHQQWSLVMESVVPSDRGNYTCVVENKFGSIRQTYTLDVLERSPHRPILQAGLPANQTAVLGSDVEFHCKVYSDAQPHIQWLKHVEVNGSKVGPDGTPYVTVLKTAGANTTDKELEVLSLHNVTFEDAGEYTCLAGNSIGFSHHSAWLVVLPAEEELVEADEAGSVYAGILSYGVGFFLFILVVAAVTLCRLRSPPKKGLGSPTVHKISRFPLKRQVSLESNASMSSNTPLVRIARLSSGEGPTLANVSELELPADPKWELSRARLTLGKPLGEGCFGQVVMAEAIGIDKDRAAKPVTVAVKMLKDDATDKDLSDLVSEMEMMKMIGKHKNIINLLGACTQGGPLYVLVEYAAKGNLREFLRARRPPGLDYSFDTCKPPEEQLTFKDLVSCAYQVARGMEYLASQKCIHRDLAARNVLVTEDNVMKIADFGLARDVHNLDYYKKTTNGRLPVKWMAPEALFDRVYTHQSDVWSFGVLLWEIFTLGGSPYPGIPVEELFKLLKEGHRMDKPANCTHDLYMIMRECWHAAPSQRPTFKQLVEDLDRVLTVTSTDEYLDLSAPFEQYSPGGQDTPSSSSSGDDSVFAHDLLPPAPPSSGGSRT

As for `O=C(Nc1ccc(NC(=O)c2ccc(Nc3ccnc4ccccc34)cc2)cc1)OCc1ccccc1` [MC3353, Benzyl (4-(4-(quinolin-4-ylamino)benzamido)phenyl)carbamate], the “cell death modality, KG-1” value in [1] is on record as “induced mainly apoptosis”. The “cell death modality, RAJI” value in test [2] is given as “shift from apoptosis to necrosis”. Besides, the “cell death modality, U-937” value in test [3] is given as “induced mainly apoptosis”. In addition, the inhibition at 10 µM in test [4] is 57%; in [5] it was -25%; in test [6] it was 20%; in test [7], -111%; in test [8], 67%; in test [9] it was -135%. In addition, the inhibition at 10 µM was -116% in test [10], -30% in test [11], -149% in test [12] and -169% in [13]. Moreover, the EC50 (as a rule, the midpoint of the concentration-response curve) in [14] (fluorescent assay, C-terminal catalytic domain, read-out: EC50 ± SD, hDNMT3A) was determined as 17 ± 3 µM. Moreover, the “fold higher potency than RG-108 against hDNMT3A” value in test [14] (ratio of EC50 values) is more than 29 fold. In addition, the “fold lower potency than SGI-1027 against hDNMT3A” value in test [14] (ratio of EC50 values) was determined as 20 fold.

These data come from paper PMC6501426 (Clinical Epigenetics, 2019).
